Assay results from PubChem BioAssay AID1963978 (Molecular Pharmacology Branch, DTP, NCI, 2024).
pIC50: −log10 of the molar value.

Test system: 616215-338-R-J1-PDC spheroids with HUVEC/MSC, viability
Assay: Anticancer human tumor 616215-338-R-J1-PDC patient-derived colon adenocarcinoma cell line growth inhibition [PI3K]
Details: for pIC50: curve of first compound; for viability, T/C: stronger effect = lower value
How it was run: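 Targeted small molecules plus PI3K inhibitors, half-log dose series from Cmax (default top 10 microM), were applied to heterotypic spheroids of cancer cells with HUVEC and MSCs. Viability indicated growth inhibition.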

[1] = second compound 0.0316 µM, first compound 0.0316 µM
[2] = second compound 0.0316 µM, first compound 0.1 µM
[3] = second compound 0.0316 µM, first compound 0.316 µM
[4] = second compound 0.0316 µM, first compound 1 µM
[5] = second compound 0.1 µM, first compound 0.0316 µM
[6] = second compound 0.1 µM, first compound 0.1 µM
[7] = second compound 0.1 µM, first compound 0.316 µM
[8] = second compound 0.1 µM, first compound 1 µM
[9] = second compound 0.316 µM, first compound 0.0316 µM
[10] = second compound 0.316 µM, first compound 0.1 µM
[11] = second compound 0.316 µM, first compound 0.316 µM
[12] = second compound 0.316 µM, first compound 1 µM
[13] = second compound 1 µM, first compound 0.0316 µM
[14] = second compound 1 µM, first compound 0.1 µM
[15] = second compound 1 µM, first compound 0.316 µM
[16] = second compound 1 µM, first compound 1 µM
[17] = second compound 0.0316 µM, first compound 3.16 µM
[18] = second compound 0.0316 µM, first compound 10 µM
[19] = second compound 0.1 µM, first compound 3.16 µM
[20] = second compound 0.1 µM, first compound 10 µM
[21] = second compound 0.316 µM, first compound 3.16 µM
[22] = second compound 0.316 µM, first compound 10 µM
[23] = second compound 1 µM, first compound 3.16 µM
[24] = second compound 1 µM, first compound 10 µM
[25] = second compound 3.16 µM, first compound 0.0316 µM
[26] = second compound 3.16 µM, first compound 0.1 µM
[27] = second compound 3.16 µM, first compound 0.316 µM
[28] = second compound 3.16 µM, first compound 1 µM
[29] = second compound 3.16 µM, first compound 3.16 µM
[30] = second compound 3.16 µM, first compound 10 µM
[31] = second compound 10 µM, first compound 0.0316 µM
[32] = second compound 10 µM, first compound 0.1 µM
[33] = second compound 10 µM, first compound 0.316 µM
[34] = second compound 10 µM, first compound 1 µM
[35] = second compound 10 µM, first compound 3.16 µM
[36] = second compound 10 µM, first compound 10 µM
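Note: spheroids exposed to agents for seven days before the viability read.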

## CCN1CCN(Cc2ccc(Nc3ncc(F)c(-c4cc(F)c5nc(C)n(C(C)C)c5c4)n3)nc2)CC1 + COc1c(OCCCN2CCOCC2)ccc2c3n(c(=NC(=O)c4cnc(N)nc4)nc12)CCN3
Second compound 0.00316 µM
  pIC50: < 6.00
Second compound 0.01 µM
  pIC50: < 6.00
Second compound 0.0316 µM
  pIC50: < 6.00
Second compound 0.1 µM
  pIC50: 6.73
Second compound 0.316 µM
  pIC50: > 8.50
Second compound 1 µM
  pIC50: > 8.50
Second compound 0.00316 µM, first compound 0.00316 µM
  viability, T/C: 80.7%
Second compound 0.00316 µM, first compound 0.01 µM
  viability, T/C: 104%
Second compound 0.00316 µM, first compound 0.0316 µM
  viability, T/C: 100%
Second compound 0.00316 µM, first compound 0.1 µM
  viability, T/C: 97.3%
Second compound 0.00316 µM, first compound 0.316 µM
  viability, T/C: 128%
Second compound 0.00316 µM, first compound 1 µM
  viability, T/C: 90.8%
Second compound 0.01 µM, first compound 0.00316 µM
  viability, T/C: 89.5%
Second compound 0.01 µM, first compound 0.01 µM
  viability, T/C: 105%
Second compound 0.01 µM, first compound 0.0316 µM
  viability, T/C: 104%
Second compound 0.01 µM, first compound 0.1 µM
  viability, T/C: 118%
Second compound 0.01 µM, first compound 0.316 µM
  viability, T/C: 138%
Second compound 0.01 µM, first compound 1 µM
  viability, T/C: 87.6%
Second compound 0.0316 µM, first compound 0.00316 µM
  viability, T/C: 108%
Second compound 0.0316 µM, first compound 0.01 µM
  viability, T/C: 109%
[1]
  viability, T/C: 103%
[2]
  viability, T/C: 106%
[3]
  viability, T/C: 112%
[4]
  viability, T/C: 55.9%
Second compound 0.1 µM, first compound 0.00316 µM
  viability, T/C: 87.8%
Second compound 0.1 µM, first compound 0.01 µM
  viability, T/C: 80.3%
[5]
  viability, T/C: 64.9%
[6]
  viability, T/C: 54.9%
[7]
  viability, T/C: 47.1%
[8]
  viability, T/C: 34.7%
Second compound 0.316 µM, first compound 0.00316 µM
  viability, T/C: 36.1%
Second compound 0.316 µM, first compound 0.01 µM
  viability, T/C: 33.8%
[9]
  viability, T/C: 33%
[10]
  viability, T/C: 40.7%
[11]
  viability, T/C: 33.4%
[12]
  viability, T/C: 32%
Second compound 1 µM, first compound 0.00316 µM
  viability, T/C: 22.3%
Second compound 1 µM, first compound 0.01 µM
  viability, T/C: 23.4%
[13]
  viability, T/C: 20.6%
[14]
  viability, T/C: 24.6%
[15]
  viability, T/C: 27.2%
[16]
  viability, T/C: 31.1%

## CC1(C)CCC(Nc2ncc(C(F)(F)F)c(-c3c[nH]c4c(P(C)(C)=O)c(C#N)ccc34)n2)CN1 (stereo unspecified) + CC(Nc1ncnc2nc[nH]c12)c1cc2cccc(Cl)c2c(=O)n1-c1ccccc1
Second compound 0.0316 µM
  pIC50: 7.50
Second compound 0.1 µM
  pIC50: 7.50
Second compound 0.316 µM
  pIC50: 7.50
Second compound 1 µM
  pIC50: > 7.50
Second compound 3.16 µM
  pIC50: 5.96
Second compound 10 µM
  pIC50: 6.15
[1]
  viability, T/C: 53.9%
[2]
  viability, T/C: 39%
[3]
  viability, T/C: 44.9%
[4]
  viability, T/C: 51.6%
[17]
  viability, T/C: 51.8%
[18]
  viability, T/C: 0.44%
[5]
  viability, T/C: 50.6%
[6]
  viability, T/C: 37%
[7]
  viability, T/C: 44.8%
[8]
  viability, T/C: 45.8%
[19]
  viability, T/C: 54%
[20]
  viability, T/C: 1.73%
[9]
  viability, T/C: 44%
[10]
  viability, T/C: 37.4%
[11]
  viability, T/C: 41.1%
[12]
  viability, T/C: 42.3%
[21]
  viability, T/C: 51.3%
[22]
  viability, T/C: 0.53%
[13]
  viability, T/C: 42.2%
[14]
  viability, T/C: 41.1%
[15]
  viability, T/C: 39.9%
[16]
  viability, T/C: 70.7%
[23]
  viability, T/C: 46.5%
[24]
  viability, T/C: 1.13%
[25]
  viability, T/C: 44.1%
[26]
  viability, T/C: 39.4%
[27]
  viability, T/C: 64.1%
[28]
  viability, T/C: 57.4%
[29]
  viability, T/C: 41.8%
[30]
  viability, T/C: 0.36%
[31]
  viability, T/C: 48%
[32]
  viability, T/C: 51.3%
[33]
  viability, T/C: 58.4%
[34]
  viability, T/C: 48.4%
[35]
  viability, T/C: 20.9%
[36]
  viability, T/C: 0.61%

## CCCS(=O)(=O)Nc1ccc(F)c(C(=O)c2c[nH]c3ncc(-c4ccc(Cl)cc4)cc23)c1F + CC(Nc1ncnc2nc[nH]c12)c1cc2cccc(Cl)c2c(=O)n1-c1ccccc1
Second compound 0.0316 µM
  pIC50: 5.34
Second compound 0.1 µM
  pIC50: 5.39
Second compound 0.316 µM
  pIC50: 5.36
Second compound 1 µM
  pIC50: 5.33
Second compound 3.16 µM
  pIC50: 5.37
Second compound 10 µM
  pIC50: 5.33
[1]
  viability, T/C: 102%
[2]
  viability, T/C: 93.2%
[3]
  viability, T/C: 106%
[4]
  viability, T/C: 93.6%
[17]
  viability, T/C: 73.2%
[18]
  viability, T/C: 1.56%
[5]
  viability, T/C: 110%
[6]
  viability, T/C: 102%
[7]
  viability, T/C: 106%
[8]
  viability, T/C: 96.4%
[19]
  viability, T/C: 63.4%
[20]
  viability, T/C: 1.25%
[9]
  viability, T/C: 105%
[10]
  viability, T/C: 113%
[11]
  viability, T/C: 97.7%
[12]
  viability, T/C: 101%
[21]
  viability, T/C: 68.9%
[22]
  viability, T/C: 1.67%
[13]
  viability, T/C: 107%
[14]
  viability, T/C: 105%
[15]
  viability, T/C: 93.8%
[16]
  viability, T/C: 101%
[23]
  viability, T/C: 74.3%
[24]
  viability, T/C: 2.71%
[25]
  viability, T/C: 100%
[26]
  viability, T/C: 115%
[27]
  viability, T/C: 102%
[28]
  viability, T/C: 107%
[29]
  viability, T/C: 67.4%
[30]
  viability, T/C: 1.53%
[31]
  viability, T/C: 115%
[32]
  viability, T/C: 105%
[33]
  viability, T/C: 113%
[34]
  viability, T/C: 104%
[35]
  viability, T/C: 74.7%
[36]
  viability, T/C: 3%
